Measurements taken from US8609836B2, “4-aryl-2-anilino-pyrimidines” (Janssen Pharmaceutica NV, priority 2008, dated 2013).
pIC50: −log10 of the molar value.

How the values were obtained:
AuroraB (h) = AuroraB (h) (Homo sapiens, UniProt Q96GD4); experiment: Aurora-B human kinase inhibition, SPA; format: biochemical; details: read-out: AuroraB pIC50 (converted)
Experimental: (§1) The in vitro inhibition of a panel of kinases was assessed using either the scintillation proximity assay (SPA) as described by Cook, N. D. et al., Advances in Experimental Medicine and Biology (1991), 36; p. 525-528.
(§2) In the SPA technology the activity of the kinase of interest is measured using an appropriate biotinylated substrate that is incubated with the aforementioned kinase protein in the presence of (^33P) radiolabeled ATP. (^33P) Phosphorylation of the substrate is subsequently measured through binding of the phosphorylated substrate to streptavidine coated beads that are based on the scintillant poly(vinyl toluene) (PVT-Beads). The scintillation intensity is detected by imaging on Leadseeker.
(§3) All kinases are pre-diluted to a 10× working concentration prior to addition into the assay. The composition of the dilution buffer for each kinase is detailed below.
In a final reaction volume of 30 μl, AuroraB (h) (0.5 μg/ml) is incubated with 60 mM Hepes pH 7.5, 3 mM MgCl2, 3 mM MnCl2, 3 μM Na3VO4, 0.05 mg/ml PEG, 2 mM DTT, 3 μM Biotin-[…]-OH, 0.5 μM ATP and 2.2 nM [γ-^33P-ATP] (6.8 μCi/ml). After incubation of 60 minutes at room temperature, the reaction is stopped by addition of 40 μL of stop solution containing 8.7 mM EDTA, BSA 0.17%, 0.17% Triton X-100, 5 mg/ml SPA beads (GE-healthcare). The plate is centrifuged and read for Scintillation imaging on Leadseeker.

PLK1 T210D (h) = PLK1 T210D (h) (Homo sapiens, UniProt P53350, T210D); experiment: PLK1 human kinase inhibition, SPA; format: biochemical; details: read-out: PLK1 pIC50 (converted)
Sequence of PLK1 T210D (h) (P53350 whole entry T210D): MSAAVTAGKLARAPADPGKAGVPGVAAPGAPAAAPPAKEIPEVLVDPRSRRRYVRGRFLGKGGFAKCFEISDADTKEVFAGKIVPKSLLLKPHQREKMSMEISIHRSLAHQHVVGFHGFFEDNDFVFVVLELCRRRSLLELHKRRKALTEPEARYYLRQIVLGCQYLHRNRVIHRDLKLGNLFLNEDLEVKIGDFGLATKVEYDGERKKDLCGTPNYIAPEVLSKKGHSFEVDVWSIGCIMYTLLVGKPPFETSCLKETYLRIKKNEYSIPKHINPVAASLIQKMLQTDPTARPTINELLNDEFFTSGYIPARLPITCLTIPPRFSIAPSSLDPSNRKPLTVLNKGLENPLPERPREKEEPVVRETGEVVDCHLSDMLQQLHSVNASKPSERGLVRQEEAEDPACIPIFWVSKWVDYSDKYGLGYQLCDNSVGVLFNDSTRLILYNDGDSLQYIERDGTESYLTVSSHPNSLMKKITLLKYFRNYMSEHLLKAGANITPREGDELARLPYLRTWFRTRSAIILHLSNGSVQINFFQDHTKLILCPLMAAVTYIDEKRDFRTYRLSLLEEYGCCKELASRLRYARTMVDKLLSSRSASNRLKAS
Experimental: as §1, §2, §3
In a final reaction volume of 30 μl, PLK1 T210D (h) (0.125 ng/ml) is incubated with 50 mM Hepes pH 8.0, 2 mM MnCl2, 1 mM DTT, 2 μM of peptide Biotin-Tds linker-[…], 0.1 μM ATP and 2 nM [γ-^33P-ATP] (6.0 μCi/ml). After incubation of 40 minutes at room temperature, the reaction is stopped by addition of 40 μL of stop solution containing 8.7 mM EDTA, BSA 0.17%, 0.17% Triton X-100, 25 mg/ml SPA beads (GE-healthcare). The plate is centrifuged and read for Scintillation imaging on Leadseeker.

CDK1/CyclinB (h) = CDK1/CyclinB (h) (Homo sapiens, UniProt P06493); experiment: CDK1/CyclinB human kinase inhibition, Invitrogen's FRET assay (Z'lyte); format: biochemical; details: read-out: CDK1 pIC50 (converted)
Sequence of CDK1/CyclinB (h) (P06493 whole entry): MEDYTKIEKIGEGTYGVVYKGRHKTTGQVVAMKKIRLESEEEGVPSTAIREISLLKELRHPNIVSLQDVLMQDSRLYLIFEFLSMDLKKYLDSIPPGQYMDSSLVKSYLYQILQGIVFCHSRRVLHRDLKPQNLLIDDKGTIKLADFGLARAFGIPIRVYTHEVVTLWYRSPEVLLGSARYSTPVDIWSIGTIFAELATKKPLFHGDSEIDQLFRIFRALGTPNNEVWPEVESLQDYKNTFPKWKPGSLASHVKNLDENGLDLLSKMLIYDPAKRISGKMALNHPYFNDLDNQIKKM
Sequence of CDK1/CyclinB (h) (P14635 whole entry partner): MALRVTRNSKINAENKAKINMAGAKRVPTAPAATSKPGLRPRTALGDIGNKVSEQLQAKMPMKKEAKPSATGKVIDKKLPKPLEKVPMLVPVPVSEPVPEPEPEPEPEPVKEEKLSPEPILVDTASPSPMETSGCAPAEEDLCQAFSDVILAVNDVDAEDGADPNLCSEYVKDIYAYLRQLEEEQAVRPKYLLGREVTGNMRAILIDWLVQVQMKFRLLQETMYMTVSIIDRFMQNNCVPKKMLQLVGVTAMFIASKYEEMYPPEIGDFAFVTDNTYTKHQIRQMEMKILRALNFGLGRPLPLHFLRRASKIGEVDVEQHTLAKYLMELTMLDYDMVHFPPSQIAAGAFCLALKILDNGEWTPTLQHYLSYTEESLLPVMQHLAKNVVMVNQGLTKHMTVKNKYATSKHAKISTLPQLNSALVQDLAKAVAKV
Experimental: as §1, §3
In a final reaction volume of 10 μl, CDK1/CyclinB (h) (0.2 μg/ml) is incubated with 50 mM Hepes pH 7.5, 10 mM MgCl2, 1 mM EGTA, 0.01% Brij-35, 2 μM Z'lyte Ser/Thr peptide 12 and 10 μM ATP (Invitrogen's FRET assay). After incubation of 60 minutes at room temperature, the reaction is stopped by addition of 5 μL development reagent containing protease mix. After 60 minutes room temperature the development reaction is stopped by adding 5 μl stop solution. The plate is then read in fluorescence plate reader with excitation: 390 nm and dual emission: 460 and 538 nm. Emission ratio is determined to the formula=Emission signal intensity at 460 nm/Emission signal intensity at 538 nm.

HCT-116 = experiment: Cellular proliferation assay (Alamar blue), HCT-116; format: cell-based; details: Homo sapiens, 10% FCS, 72 hours with compound, Alamar blue 4 h
Experimental: (§4) […] functional properties of these compounds were tested in cellular proliferation assays on a panel of different cell lines in the presence of 10% FCS serum (37° C. and 5% (v/v) CO2). In a first step these cells were seeded and incubated for 24 hours in the absence of compound. In the second step the cells were incubated for 72 hours with the compounds to be tested for 72 hours. The viable cell number was finally assessed in a standard Alamar blue cell viability assay.
(§5) The viable cell number was assessed by incubation for either 4 h (HCT-116, H1299) 6 h (U87-MG) or 24 h (A2780, MDA-MB-231) with Alamar blue (Resazurin 9 μg/ml, K-Ferrocyanide 90 μM, K-Ferricyanide 90 μM) and the converted fluorescent product was quantified on a fluorescent plate reader (544 nm/590 nm). Effect of the compounds is calculated as of on control cells.

PLK4 (h) = PLK4 (h) (Homo sapiens, UniProt O00444); experiment: PLK-4 human kinase inhibition, scintillation proximity assay (SPA); format: biochemical; details: read-out: PLK4 pIC50 (converted)
Sequence of PLK4 (h) (O00444 whole entry): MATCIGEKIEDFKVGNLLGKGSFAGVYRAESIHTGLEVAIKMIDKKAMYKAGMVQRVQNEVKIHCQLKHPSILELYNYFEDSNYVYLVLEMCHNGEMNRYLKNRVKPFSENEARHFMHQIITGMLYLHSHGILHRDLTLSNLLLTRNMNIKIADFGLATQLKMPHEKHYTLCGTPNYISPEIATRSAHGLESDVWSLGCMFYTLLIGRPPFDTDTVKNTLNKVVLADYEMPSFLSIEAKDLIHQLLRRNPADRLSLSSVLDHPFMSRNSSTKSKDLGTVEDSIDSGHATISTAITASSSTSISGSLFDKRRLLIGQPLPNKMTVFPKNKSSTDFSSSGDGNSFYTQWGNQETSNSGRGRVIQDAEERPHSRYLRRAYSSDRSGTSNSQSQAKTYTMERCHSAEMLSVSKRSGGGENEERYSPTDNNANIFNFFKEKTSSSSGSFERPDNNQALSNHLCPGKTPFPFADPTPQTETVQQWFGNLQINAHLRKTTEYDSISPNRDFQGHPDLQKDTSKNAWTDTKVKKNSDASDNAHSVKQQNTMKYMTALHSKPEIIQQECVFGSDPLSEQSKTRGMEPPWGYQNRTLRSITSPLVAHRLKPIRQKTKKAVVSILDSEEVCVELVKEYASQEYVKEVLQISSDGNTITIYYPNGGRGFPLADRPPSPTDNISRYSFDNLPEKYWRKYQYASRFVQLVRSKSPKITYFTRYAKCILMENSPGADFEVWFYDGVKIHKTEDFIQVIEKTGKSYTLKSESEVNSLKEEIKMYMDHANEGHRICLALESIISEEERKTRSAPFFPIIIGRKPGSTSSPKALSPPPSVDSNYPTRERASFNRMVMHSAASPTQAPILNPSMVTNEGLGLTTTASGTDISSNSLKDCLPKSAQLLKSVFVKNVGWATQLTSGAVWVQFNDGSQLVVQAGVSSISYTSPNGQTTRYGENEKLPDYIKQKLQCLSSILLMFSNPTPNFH
Experimental: as §2, §3
(6.0 μCi/ml). After incubation of 60 minutes at room temperature, the reaction is stopped by addition of 40 μL of stop solution containing 8.7 mM EDTA, BSA 0.17%, 0.17% Triton X-100, 1.7 mg/ml SPA beads (GE-healthcare). The plate is centrifuged and read for Scintillation imaging on Leadseeker.

PLK2 (h) = PLK2 (h) (Homo sapiens, UniProt Q9NYY3); experiment: PLK2 human kinase inhibition, SPA; format: biochemical; details: read-out: PLK2 pIC50 (converted)
Sequence of PLK2 (h) (Q9NYY3 whole entry): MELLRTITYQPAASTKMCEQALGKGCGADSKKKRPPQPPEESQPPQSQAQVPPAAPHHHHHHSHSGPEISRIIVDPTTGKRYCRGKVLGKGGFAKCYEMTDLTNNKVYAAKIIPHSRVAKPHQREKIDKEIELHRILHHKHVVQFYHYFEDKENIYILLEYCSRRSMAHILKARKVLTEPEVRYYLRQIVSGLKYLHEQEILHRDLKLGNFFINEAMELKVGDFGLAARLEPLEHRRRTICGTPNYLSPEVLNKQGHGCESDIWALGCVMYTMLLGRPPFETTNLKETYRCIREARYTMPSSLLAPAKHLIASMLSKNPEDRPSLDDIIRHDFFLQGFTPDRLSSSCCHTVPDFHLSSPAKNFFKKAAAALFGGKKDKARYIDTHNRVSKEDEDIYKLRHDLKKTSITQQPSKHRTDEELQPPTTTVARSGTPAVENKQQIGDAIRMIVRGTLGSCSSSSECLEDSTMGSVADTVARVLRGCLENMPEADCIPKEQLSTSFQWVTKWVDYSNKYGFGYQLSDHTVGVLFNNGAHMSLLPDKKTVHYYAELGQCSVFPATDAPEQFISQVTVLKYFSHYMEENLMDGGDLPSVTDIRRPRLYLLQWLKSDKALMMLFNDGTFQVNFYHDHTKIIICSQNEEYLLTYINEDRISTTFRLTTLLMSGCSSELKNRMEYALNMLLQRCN
Experimental: as §1, §2, §3
(§6) In a final reaction volume of 30 μl, PLK2 (h) (30 μg/ml) is incubated with 50 mM Hepes pH 8.0, 2 mM MnCl2, 1 mM DTT, 2 μM of peptide Biotin-Tds linker-[…], 0.1 μM ATP and 2 nM [γ-^33P-ATP] (6.0 μCi/ml). After incubation of 20 minutes at room temperature, the reaction is stopped by addition of 40 μL of stop solution containing 8.7 mM EDTA, BSA 0.17%, 0.17% Triton X-100, 25 mg/ml SPA beads (GE-healthcare). The plate is centrifuged and read for Scintillation imaging on Leadseeker.

PLK3 (h) = PLK3 (h) (Homo sapiens, UniProt Q9H4B4); experiment: PLK3 human kinase inhibition, SPA; format: biochemical; details: read-out: PLK3 pIC50 (converted)
Sequence of PLK3 (h) (Q9H4B4 whole entry): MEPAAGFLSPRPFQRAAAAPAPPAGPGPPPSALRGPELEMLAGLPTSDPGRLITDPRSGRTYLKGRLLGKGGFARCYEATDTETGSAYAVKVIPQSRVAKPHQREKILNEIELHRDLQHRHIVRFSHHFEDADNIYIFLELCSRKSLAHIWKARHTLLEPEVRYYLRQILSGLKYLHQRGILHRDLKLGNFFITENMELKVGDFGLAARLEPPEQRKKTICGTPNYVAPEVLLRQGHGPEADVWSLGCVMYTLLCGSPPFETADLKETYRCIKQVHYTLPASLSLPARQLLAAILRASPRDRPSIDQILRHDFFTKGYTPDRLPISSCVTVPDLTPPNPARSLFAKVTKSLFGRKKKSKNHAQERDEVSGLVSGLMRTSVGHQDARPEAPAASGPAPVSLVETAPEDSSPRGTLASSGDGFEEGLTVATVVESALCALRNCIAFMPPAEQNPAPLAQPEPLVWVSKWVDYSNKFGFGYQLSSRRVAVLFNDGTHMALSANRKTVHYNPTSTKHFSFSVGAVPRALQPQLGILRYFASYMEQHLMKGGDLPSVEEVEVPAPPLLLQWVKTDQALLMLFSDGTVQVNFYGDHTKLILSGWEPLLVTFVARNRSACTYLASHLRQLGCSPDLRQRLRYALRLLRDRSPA
Experimental: as §1, §2, §3
as §6, with “PLK3” for “PLK2”

MDA-MB-231 = experiment: Cellular proliferation assay (Alamar blue), MDA-MB-231; format: cell-based; details: Homo sapiens, 10% FCS, 72 hours with compound, Alamar blue 24 h, read-out: MDA/MB231 (cellular proliferation assay, Table 4) (converted)
Experimental: as §4, §5

A2780 = experiment: Cellular proliferation assay (Alamar blue), A2780; format: cell-based; details: Homo sapiens, 10% FCS, 72 hours with compound, Alamar blue 24 h, read-out: A2780 (cellular proliferation assay, Table 4) (converted)
Experimental: as §4, §5

U87-MG = experiment: Cellular proliferation assay (Alamar blue), U87-MG; format: cell-based; details: Homo sapiens, U-87 MG; 10% FCS; 72 hours with compound; Alamar blue 6 h; read-out: U87-MG (cellular proliferation assay, Table 4) (converted)
Experimental: as §4, §5

GSK3β (h) = GSK3β (h) (Homo sapiens, UniProt P49841); experiment: GSK-3β human kinase inhibition, SPA; format: biochemical; details: read-out: GSK3b pIC50 (converted)
Sequence of GSK3β (h) (P49841 whole entry): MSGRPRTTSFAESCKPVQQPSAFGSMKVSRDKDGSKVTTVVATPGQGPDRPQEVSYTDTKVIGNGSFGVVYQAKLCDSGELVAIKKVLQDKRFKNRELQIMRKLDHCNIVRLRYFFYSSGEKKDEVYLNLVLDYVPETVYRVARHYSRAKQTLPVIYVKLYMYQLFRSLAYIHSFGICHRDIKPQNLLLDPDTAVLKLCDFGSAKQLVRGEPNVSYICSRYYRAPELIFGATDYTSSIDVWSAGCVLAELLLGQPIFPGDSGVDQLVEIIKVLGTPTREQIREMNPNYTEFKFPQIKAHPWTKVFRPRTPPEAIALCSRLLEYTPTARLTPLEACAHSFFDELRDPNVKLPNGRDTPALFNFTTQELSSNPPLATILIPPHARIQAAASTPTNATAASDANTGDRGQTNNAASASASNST
Experimental: as §1, §2, §3
In a final reaction volume of 30 μl, GSK3β (h) (1 μg/ml) is incubated with 25 mM Tris pH 7.4, 10 mM MgCl2, 1 mM DTT, 1 μM peptide Biotin-[…]-OH, 1 μM ATP and 2 nM [γ-^33P-ATP] (6.0 μCi/ml). After incubation of 60 minutes at room temperature, the reaction is stopped by addition of 40 μL of stop solution containing 8.7 mM EDTA, BSA 0.17%, 0.17% Triton X-100, 6.25 mg/ml SPA beads (GE-healthcare). The plate is centrifuged and read for Scintillation imaging on Leadseeker.

H1299 = experiment: Cellular proliferation assay (Alamar blue), H1299; format: cell-based; details: Homo sapiens, NCI-H1299; 10% FCS; 72 hours with compound; Alamar blue 4 h
Experimental: as §4, §5

Sequence of AuroraB (h) (Q96GD4 whole entry): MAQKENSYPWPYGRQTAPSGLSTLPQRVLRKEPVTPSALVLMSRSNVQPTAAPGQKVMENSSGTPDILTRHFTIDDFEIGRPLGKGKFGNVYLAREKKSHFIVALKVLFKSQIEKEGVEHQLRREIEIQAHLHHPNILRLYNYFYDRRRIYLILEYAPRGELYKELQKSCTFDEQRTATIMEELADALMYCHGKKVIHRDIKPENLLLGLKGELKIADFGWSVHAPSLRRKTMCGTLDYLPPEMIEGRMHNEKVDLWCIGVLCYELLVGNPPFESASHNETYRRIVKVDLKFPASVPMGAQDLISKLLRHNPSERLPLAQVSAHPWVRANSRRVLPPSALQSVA

Row | Compound | IC50 (AuroraB (h)) [µM] | IC50 (PLK1 T210D (h)) [µM] | IC50 (CDK1/CyclinB (h)) [µM] | pIC50 (HCT-116) | IC50 (PLK4 (h)) [µM] | IC50 (PLK2 (h)) [µM] | IC50 (PLK3 (h)) [µM] | IC50 (MDA-MB-231) [µM] | IC50 (A2780) [µM] | IC50 (U87-MG) [µM] | IC50 (GSK3β (h)) [µM] | pIC50 (H1299)
1 | COc1cc2cc(c1OC)CNC(=O)[C@H](CO)NCc1cccc(c1)-c1ccnc(n1)N2 [Compound 8] | 4.68 | > 10 | > 10 | 5.10 | 0.363 | 3.63 | 4.68 | > 10 | > 10 | > 10 | 0.309 | < 5.00
2 | CN1CCNC(=O)[C@H](CO)NCc2cc(cc(N3CCOCC3)c2)Nc2nccc(n2)-c2ccc(cc2)C1 [Compound 108] | 6.03 | > 10 | > 10 | 5.08 | 0.603 | > 3.02 | > 10 | > 10 | > 10 | 8.91 | 6.61 | < 5.00
3 | CN1CCCNC(=O)[C@H](CO)NCc2cc(Br)cc(c2)Nc2nccc(n2)-c2ccc(cc2)C1 [Compound 110] | 2.57 | > 10 | > 10 | < 5.00 | 0.759 | > 10 | > 10 |  | 5.5 | 8.51 | 6.46 | 
4 | CN1CCNC(=O)[C@H](CO)NCc2cc(Br)cc(c2)Nc2nccc(n2)-c2ccc(cc2)C1 [Compound 121] |  |  |  | 5.72 |  |  |  | 7.76 | 10 | 7.24 |  | 5.22
5 | O=C1NCCNCc2ccc(cc2)-c2ccnc(n2)Nc2ccc(N3CCOCC3)c(c2)CN2C[C@H](O)C[C@@H]12 [Compound 166] |  | > 10 |  | < 5.00 | 3.55 |  |  | > 10 | > 10 | > 3.02 |  | 
6 | O=C1NCCCNCc2ccc(cc2)-c2ccnc(n2)Nc2ccc(N3CCOCC3)c(c2)CN2CCC[C@@H]12 [Compound 172] |  | > 10 |  | < 5.00 | 5.37 |  |  | > 10 | > 10 | 4.79 |  | 

Next, values leading:

Row | IC50 (AuroraB (h)) [µM] | IC50 (PLK1 T210D (h)) [µM] | IC50 (CDK1/CyclinB (h)) [µM] | pIC50 (HCT-116) | IC50 (PLK4 (h)) [µM] | IC50 (PLK2 (h)) [µM] | IC50 (PLK3 (h)) [µM] | IC50 (MDA-MB-231) [µM] | IC50 (A2780) [µM] | IC50 (U87-MG) [µM] | IC50 (GSK3β (h)) [µM] | pIC50 (H1299) | Compound
7 |  | > 10 |  | < 5.00 | 1.58 |  |  | > 10 | > 10 | 5.62 |  | 5.58 | O=C1NCCCNCc2ccc(cc2)-c2ccnc(n2)Nc2ccc(N3CCOCC3)c(c2)CN2CCC1CC2 [Compound 69]
8 | > 10 | > 10 | > 10 | 5.32 | 5.89 | > 10 | > 10 | > 10 | > 10 | > 10 | 2.95 | 5.23 | COc1ccc2cc1CN1CCC(CC1)C(=O)N(C)CCCN(C)c1ccc(cn1)-c1ccnc(n1)N2 [Compound 85]
9 | > 10 | > 10 | 4.68 | 5.77 | 0.646 | > 10 | > 10 | 5.37 | 6.03 | 4.57 | 0.417 | 5.06 | CC1(C)NCc2cc(ccc2N2CCOCC2)Nc2nccc(n2)-c2cccc(c2)OCCCNC1=O [Compound 90]
10 | > 10 | > 10 | > 10 | 5.44 | 1.12 | > 10 | > 10 | 10 | 7.24 | > 10 | 4.68 | < 5.00 | O=C1NCCCOc2cccc(c2)-c2ccnc(n2)Nc2ccc(N3CCOCC3)c(c2)CN2CCC1CC2 [Compound 93]
11 | > 10 | > 10 | > 10 | 5.16 | 3.63 | > 10 | > 10 | > 10 | 7.76 | 6.92 | 0.417 | < 5.00 | O=C1NCCCOc2cccc(c2)-c2ccnc(n2)Nc2ccc(N3CCOCC3)c(c2)CN2C[C@H](O)C[C@@H]12 [Compound 99]
12 |  |  |  | 6.50 |  |  |  | > 10 | > 10 | 4.68 |  | < 5.00 | COc1ccc2cc1CN1CCN(CC1)CC(=O)N(C)CCCN(C)c1ccc(cn1)-c1ccnc(n1)N2 [Compound 148]
13 |  | > 10 |  | < 5.00 | > 10 |  |  | > 10 | > 10 | > 10 |  | < 5.00 | COc1ccc2cc1CNCCCNC(=O)[C@@H]1C[C@@H](O)CN1Cc1cc(ccc1N1CCOCC1)Nc1nccc-2n1 [Compound 176]
